Assay results reported in publication PMC3150631 (Nature, 2011).

Biological target: T1, UCP2 (mouse mitochondrial uncoupling protein 2) (Mus musculus, UniProt P70406)
T1 sequence (P70406 14-309): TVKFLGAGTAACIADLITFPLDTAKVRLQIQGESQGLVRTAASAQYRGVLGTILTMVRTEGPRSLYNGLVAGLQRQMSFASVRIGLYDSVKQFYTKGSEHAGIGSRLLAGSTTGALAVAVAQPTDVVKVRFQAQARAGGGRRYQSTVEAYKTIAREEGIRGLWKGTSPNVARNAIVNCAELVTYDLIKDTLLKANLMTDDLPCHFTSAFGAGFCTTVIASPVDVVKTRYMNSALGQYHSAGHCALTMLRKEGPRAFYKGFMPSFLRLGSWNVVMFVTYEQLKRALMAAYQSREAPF
Experiment: proton translocation in liposomes
Type: biochemical
Settings: fatty-acid activated; inhibitor

Nc1nc2c(ncn2[C@@H]2O[C@H](COP(=O)(O)OP(=O)(O)O)[C@@H](O)[C@H]2O)c(=O)[nH]1 [GDP]
proton translocation in liposomes: it showed fatty-acid activated and GDP-inhibited proton translocation activity
